The values below come from a melting point compilation (Tetko et al.; mined from patent text by program, amines drawn as free bases though some values may be those of a salt).

Turning to `CCCCNc1nc(C)nc2c1nnn2-c1ccc(C(C)C)cc1Br`, the melting point is 149 to 151 °C.
As for `C[C@@H]1SC(N)=N[C@H]1Cc1ccccc1`, the melting point stood at 89 °C.
The result for `CCOC(=O)c1nnnn1Cc1ccccc1[N+](=O)[O-]` reads 90 to 92 °C; that for `CC1(C)CCc2c(-c3ccco3)nc3sc4c(NCc5ccccn5)ncnc4c3c2C1`, 233 °C.
The result for `CC(=O)OCC1OC(c2ccc(F)c(Cc3ccc(Cl)s3)c2)C(OC(C)=O)C(OC(C)=O)C1OC(C)=O` (stereo not drawn) reads 130 to 131 °C.
As for `Cc1c(N2CCC(C(N)c3cccnc3)C2)c(F)c(N)c2c(=O)c(C(=O)O)cn(C3CC3F)c12` (stereo not drawn), the melting point fell in the range of 213 to 215 °C.
For `O=c1[nH]sc2cc(Cl)ccc12` the value was 271 to 272 °C; for `CCc1nc(-c2ccc(OCCCn3ccnc3)cc2)no1`, 74 to 75.5 °C.
For `COC12CC(C)(c3nnc(-c4cncc(Br)c4)[nH]3)CN(C)C1Cc1c[nH]c3cccc2c13` (stereo not drawn) the value was 163 to 168 °C.
`Cc1cc(Br)cc(C=NO)c1` returned a melting point of 128 to 129 °C.
The result for `Cn1nc(Cl)c(C(=O)OC2COC2)c1S(N)(=O)=O` reads 145 to 147 °C.
The result for `Cn1ncc(SCc2ccccc2)c(Br)c1=O` reads 118 to 121 °C; that for `O=c1[nH]c2cc(C(F)(F)F)c([N+](=O)[O-])cc2n1-c1cc(Cl)cc(Br)c1O`, 262 to 264 °C.
For `C[C@@H](n1cnc2ncccc2c1=O)[C@](O)(Cn1cncn1)c1ccc(F)cc1F` the value was 210 to 211 °C; for `CN(C)C=NS(=O)(=O)c1nc2ccc(O)cc2s1`, 195 to 198 °C.
With `CCN(CC)C(=O)c1nc(C)c(-c2ccncc2)s1`, the melting point lay within 87.5 to 89 °C.
The result for `O=C(O)[C@H](Cc1ccccc1)Nc1c(NCc2ccccc2)c(=O)c1=O` reads 215 to 216 °C.
For the compound `CC(=O)N1CCC(CC(=O)c2ccc(N(C)C)cc2)CC1`, the melting point came out at 136 °C.
For `Cc1ccc(S(=O)(=O)N2CCC[C@H](CC#N)c3ccccc32)cc1` the value was 106 °C; for `COc1ccc(-c2cc(-c3ccc(-c4c(Cc5ccccc5)sc5ccccc45)cc3)ccc2OC(Cc2ccccc2)C(=O)O)cc1` (stereo not drawn), 82 to 84 °C.
For `COc1cc(C(=O)NN2CCN(C3CCCC3)CC2)ccc1Nc1ncc2c(n1)N(C1CCCCC1)CC(F)(F)C(=O)N2C` the value was 98 to 99 °C; for `O=C1CC(c2cccc(-n3ccnc3)c2)=Nc2cc(O)c(-c3ccc(F)cc3)cc2N1`, 250 °C; for `COc1cc(C=O)cc2c1OC(C)(C)C2`, 58 to 59 °C.
For `Cc1cc2c3c(cccc3c1Br)C(=O)N(O)C2=O` the value was 255 to 257 °C; for `ClCc1c(-c2ccccc2)c(-c2ccccc2)nn1-c1ccccc1`, 122 °C; for `CCCC(c1ccc(C(N)=O)cc1)n1ccnc1` (stereo not drawn), 132 °C.
`CCc1cccc2c(/C=C(/C)C(=O)O)cc(OC)c(O)c12` showed a melting point of 127 to 128 °C.
For `CC(=O)c1nnc(-c2ccc3occ(-c4cccc(OC(F)(F)F)c4)c3c2)o1` the value was 64 to 65 °C; for `O=C(O)Cc1nn(Cc2nc3cc(O)cc(O)c3s2)c(=O)c2ccccc12`, 184 °C; for `CCOC(=O)CNC(=O)c1ccc(CCC2CNc3nc(N)nc(O)c3C2)s1` (stereo not drawn), 152 to 160 °C.
In turn, `C[Si](C)(CCCc1nnc(N)nc1N)c1ccccc1` returned a melting point of 132 to 133 °C.
In the case of `CCOC(=O)c1c(Cl)nc2cscc2c1Cl`, the melting point turned out to be 79 °C.
Turning to `COCCC(=O)OC1(C(=O)CO)CCC2C3CCC4=CC(=O)CCC4(C)C3C(O)CC21C` (stereo not drawn), the melting point is 172 °C.
The result for `COc1cc(C)c(NC(=O)CC(C)(C)C)c(C)c1Cc1ccc(C(C)C)cc1` reads 181 to 182 °C.
Regarding `CC1(C)CC(C)(C#N)c2cn(-c3ccc(F)cc3)c(C=O)c21` (stereo not drawn), the melting point was 165 to 168 °C.
`CCCN(C(C)C)S(=O)(=O)NC(=O)c1cc(-n2c(=O)cc(C(F)(F)F)n(C)c2=S)c(F)cc1Cl` returned a melting point of 74 to 75 °C.
The result for `Cc1cccc(C)c1CNc1cc(C(=O)N(C)C)nc2c(CO)c(C)[nH]c12` reads 301 °C; that for `Nc1ccc2nc(-c3ccc4c(c3)OCCO4)ncc2c1`, 179 to 182 °C.
The result for `CCOC(=O)C1=C(COCCO)NC(C)=C(C(=O)OC)C1c1ccccc1Cl` (stereo not drawn) reads 125 to 130 °C; that for `Cc1cccc(C(=O)C2CCCc3cccnc32)c1` (stereo not drawn), 211 to 213 °C.
`O=C(Nc1nnn[nH]1)c1cnc2sc3ccc(Cl)cc3n2c1=O` came in with a melting point of over 300 °C.
For `COc1nccc2c(=O)n(C)c(N3C=CC(OC4CCN(C5CCC5)CC4)=NC3)nc12`, the melting point was in the range of 199 to 200 °C.
The result for `COc1c(-c2ccc(S(C)(=O)=O)cc2)cnn(-c2ccc(F)c(F)c2)c1=O` reads 113 to 115 °C; that for `COc1ccc(S(=O)(=O)C2(C(=O)NO)CCN(C(C)(C)C)CC2)cc1`, 40 °C.
For `CCCCCC(CC(=O)Nc1cc(C(=O)O)ccc1C(C)(C)C)c1ccc(C(=O)CC)cc1OC` (stereo not drawn) the value was 197 to 199 °C.
The result for `CC(C)(C)OC(=O)CN1CC(c2ccco2)SCC(N2C(=O)c3ccccc3C2=O)C1=O` (stereo not drawn) reads 158 to 161 °C; that for `COc1ccccc1C=C1CS(=O)(=O)CC(=Cc2ccccc2OC)C1=O`, 198 to 200 °C; that for `COc1ccc(CC(CC(=O)O)CC(=O)O)cc1`, 109 to 110 °C.
The compound `O=C(O)C1(C(=O)O)CCC(c2c(-c3ccccc3)[nH]c3ccccc23)CC1` showed a melting point of 196 to 197 °C.
The result for `COc1ccc2c(c1)NC(=O)N(c1ccc(Cl)cc1)S2(=O)=O` reads 229 to 230 °C; that for `O=C1CC(C(F)(F)F)CC(=O)N1c1ccc(Br)cc1`, 163 to 164 °C.
For `CC1(C)OC2c3cc(F)ccc3N3CCC2(CC3)O1` (stereo not drawn) the value was 120 to 122 °C.
For `CCOC(=O)c1cnc2cn[nH]c2c1Nc1ccccc1` the value was 164 to 165 °C; for `O=C(O)c1ccc(SC(C(=O)O)c2cccc(C(F)(F)F)c2)cn1` (stereo not drawn), 190 to 195 °C.
The compound `COc1ccc(C2CNC(=O)N2C(C)c2ccccc2)cc1OC1CC2CCC1C2` (stereo not drawn) gave a melting point of 151 to 154 °C.
For `C[C@@H]1CC[C@H](C(=O)O)Cc2onc(-c3ccc(Cl)cc3)c21` (relative stereo) the value was 154 to 155 °C.
As to `COc1cc(Nc2nccc(-c3ccccn3)n2)cc(OC)c1OC`, the melting point amounted to 185 °C.
The result for `COC(=O)C#CC(=O)c1ccc(SC)cc1` reads 74 to 76 °C; that for `CCC(CC)/C(N)=C(\C#N)C(=O)Cl`, 102 °C; that for `COc1ccc(N2CCN(Cc3cnc(Cc4ccc(OC)c(OC)c4)c4cc(OC)c(OC)cc34)CC2)cc1`, 176 to 177 °C.
The compound `CC(C)N1C(=O)C2CC2(c2ccc(N)cc2)C1=O` (stereo not drawn) had a melting point of 160 to 163 °C.
In turn, `COc1cc(C=C(C=O)C(C=O)=Cc2ccc(OC(C)C)c(OC)c2)ccc1OC(C)C` gave a melting point of 119 to 120 °C.
In the case of `CNCNc1cc(C(N)=O)ccc1C(C)(C)C`, the melting point fell in the range of 143 to 144 °C.

By melting point is commonly meant the temperature of the solid-liquid transition.
